Laboratory results published in patent US6777412B2 (priority 1990, dated 2004).
Where two headings read alike, the source gives them in different places. Marks after values point to notes of the source that are not given here.

Assays:
Puccinia recondita = assay: Foliar fungal disease test on plants: Puccinia recondita (Pr); assay type: in vivo
Procedure, shortened: (§1)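 Potted plants treated by foliar spray to maximum retention (100 ppm a.i. unless stated) plus root drench (~40 ppm a.i. in dry soil), with 0.05% Tween 20 on cereals, one or two days before spore-suspension inoculation.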

Erysiphe graminis hordei = assay: Foliar fungal disease test on plants: Erysiphe graminis hordei (Egh); assay type: in vivo
Plasmopara viticola = assay: Foliar fungal disease test on plants: Plasmopara viticola (Pv); assay type: in vivo
Procedure, shortened: as §1

Pyricularia oryzae = assay type: in vivo
[1] = tested on: Phytophthora infestans lycopersici; assay type: in vivo
Cercospora arachidicola = assay: Foliar fungal disease test on plants: Cercospora arachidicola (Ca); assay type: in vivo
Description: The compounds were tested against a variety of foliar fungal diseases of plants. The technique employed was as follows.
The plants were grown in John Innes Potting Compost (No.1 or 2) in 4 cm diameter minipots. The test compounds were formulated either by bead milling with aqueous Dispersol T or as a solution in acetone or acetone/ethanol which was diluted to the required concentration immediately before use. For the foliage diseases, the formulations (100 ppm active ingredient except where otherwise indicated) were sprayed onto the foliage and applied to the roots of the plants in the soil. The sprays were applied to maximum retention and the root drenches to a final concentration equivalent to approximately 40 ppm a.i. in dry soil. Tween 20, to give a final concentration of 0.05%, was added when the sprays were applied to cereals.
For most of the tests the compound was applied to the soil (roots) and to the foliage (by spraying) one or two days before the plant was inoculated with the disease. An exception was the test on Erysiphe graminis in which the plants were inoculated 24 hours before treatment. Foliar pathogens were applied by spray as spore suspensions onto the leaves of test plants. After inoculation, the plants were put into an appropriate environment to allow infection to proceed and then incubated until the disease was ready for assessment. The period between inoculation and assessment varied from four to fourteen days according to the disease and environment.
The disease control vas recorded by the following grading:
3=trace-5% of disease on untreated plants
2=6-25% of disease on untreated plants
1=26-59% of disease on untreated plants
0=60-100% of disease on untreated plants
Ca Cercospora arachidicola

Venturia inaequalis = assay: Foliar fungal disease test on plants: Venturia inaequalis (Vi); assay type: in vivo
Procedure, shortened: as §1

[2] = 100 ppm active ingredient foliar spray plus root drench (approx. 40 ppm a.i. in dry soil), one or two days before inoculation
[3] = 100 ppm active ingredient foliar spray plus root drench (approx. 40 ppm a.i. in dry soil), plants inoculated 24 hours before treatment

| Compound | disease control grading, Pr (Puccinia recondita) (Puccinia recondita; [2]) | disease control grading, Egh (Erysiphe graminis hordei) (Erysiphe graminis hordei; [3]) | disease control grading, Pv (Plasmopara viticola) (Plasmopara viticola; [2]) | disease control grading, Po (Pyricularia oryzae) (Pyricularia oryzae; [2]) | disease control grading, Pil (Phytophthora infestans lycopersici) [1, 2] | disease control grading, Ca (Cercospora arachidicola) (Cercospora arachidicola; [2]) | disease control grading, Vi (Venturia inaegualis) (Venturia inaequalis; [2]) | disease control grading, Pr (Puccinia recondita) (Puccinia recondita; 10 ppm foliar application only) | disease control grading, Egh (Erysiphe graminis hordei) (Erysiphe graminis hordei; 10 ppm foliar application only) | disease control grading, Pv (Plasmopara viticola) (Plasmopara viticola; 10 ppm foliar application only) | disease control grading, Po (Pyricularia oryzae) (Pyricularia oryzae; 10 ppm foliar application only) | disease control grading, Pil (Phytophthora infestans lycopersici) ([1]; 10 ppm foliar application only) | disease control grading, Ca (Cercospora arachidicola) (Cercospora arachidicola; 10 ppm foliar application only) | disease control grading, Vi (Venturia inaegualis) (Venturia inaequalis; 10 ppm foliar application only) | melting point [°C] |
| --- | --- | --- | --- | --- | --- | --- | --- | --- | --- | --- | --- | --- | --- | --- | --- |
| CO/C=C(/C(=O)OC)c1ccccc1Oc1cc(N(C)c2ccccc2C#N)ncn1 [354 of Table I] | 4 (4=no disease) | 4 (4=no disease) | 4 (4=no disease) | 3 (3=trace-5% of disease on untreated plants) | 0 (0=60-100% of disease on untreated plants) | 4 (4=no disease) | 4 (4=no disease) | – | – | – | – | – | – | – | – |
| COC=C(C(=O)OC)c1ccccc1Oc1nccc(-c2ccccc2)n1 [180 of Table III] | – | – | – | – | – | – | – | 4^a (4=no disease) | 4^a (4=no disease) | 4^a (4=no disease) | 3^a (3=trace-5% of disease on untreated plants) | 4^a (4=no disease) | 3^a (3=trace-5% of disease on untreated plants) | 4^a (4=no disease) | – |
| CO/C=C(/C(=O)OC)c1ccccc1Oc1cc(OCc2ccc([N+](=O)[O-])cc2)ncn1 | – | – | – | – | – | – | – | – | – | – | – | – | – | – | 96 to 98 |
| CO/C=C(/C(=O)OC)c1ccccc1Oc1cc(Nc2ccccc2)ncn1 [4 of Table I] | 4 (4=no disease) | 4 (4=no disease) | 4 (4=no disease) | 3 (3=trace-5% of disease on untreated plants) | 3 (3=trace-5% of disease on untreated plants) | 4 (4=no disease) | 4 (4=no disease) | – | – | – | – | – | – | – | – |
| CO/C=C(/C(=O)OC)c1ccccc1Oc1cc(N(C(=O)c2ccccc2)C(=O)c2ccccc2)ncn1 [398 of Table I] | 4 (4=no disease) | 4 (4=no disease) | 4 (4=no disease) | 3 (3=trace-5% of disease on untreated plants) | 4 (4=no disease) | 4 (4=no disease) | 4 (4=no disease) | – | – | – | – | – | – | – | – |
